According to US8518942B2, “Caspase inhibitors and uses thereof” (Buck Institute for Research on Aging, priority 2008, dated 2013):

Experiments:
Hdh111Q cells = test: Evaluation of inhibitors in Hdh111Q cells (toxicity, caspase activation); assay type: cell-based; conditions: for Hdh111Q mediated toxicity: 1-100 nM; for Caspase activation in Hdh111Q cells: FIG. 18
caspase-6 = target: T1, caspase-6 (Homo sapiens, UniProt P55212); test: Irreversible inhibitor kinetic assay (progress curve), caspase-6, substrate Ac-DEVD-AMC; assay type: biochemical; conditions: casp-6; duplicate, SD included
T1 construct: gift: Guy Salvesen's laboratory, Burnham Institute (La Jolla, Calif.)
T1 sequence (P55212 24-179 limits assumed): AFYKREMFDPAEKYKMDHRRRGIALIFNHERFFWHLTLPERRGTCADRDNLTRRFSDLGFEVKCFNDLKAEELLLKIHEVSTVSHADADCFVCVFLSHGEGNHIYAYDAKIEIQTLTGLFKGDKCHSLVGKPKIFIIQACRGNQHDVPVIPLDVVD
T1 sequence (P55212 194-293 limits assumed): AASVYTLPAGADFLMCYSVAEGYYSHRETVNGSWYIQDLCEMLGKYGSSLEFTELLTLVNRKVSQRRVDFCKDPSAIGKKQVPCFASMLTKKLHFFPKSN
Excerpt: (§1) Caspases-3, -6, -7, -8, and -9 were provided by Guy Salvesen's laboratory at the Burnham Institute (La Jolla, Calif.). Caspase-1 was purchased from EMD Biosciences (San Diego, Calif.) and Caspase-2 was purchased from Biomol International (Plymouth Meeting, Pa.). Caspase substrates Ac-DEVD-AMC, Ac-VDVAD-AFC, and Ac-LEHD-AFC were purchased from EMD Biosciences (San Diego, Calif.) and Ac-VDVAD-AMC was purchased from Biomol International (Plymouth Meeting, Pa.). The proteolytic cleavage of N-acyl aminocoumarins by caspases was conducted in Dynatech Microfluor fluorescence 96-well microtiter plates, and readings were taken on a Molecular Devices Spectra Max Gemini XS instrument. The excitation wavelength was 370 nm and the emission wavelength was 455 nm for AMCA substrates, the excitation wavelength was 355 nm and the emission wavelength was 450 nm for peptidyl AMC substrates, and the excitation wavelength was 430 nm and the emission wavelength was 535 nm for peptidyl AFC substrates.
(§2) The kinact/Ki for inhibitors were determined under pseudo-first order conditions using the progress curve method (Eckici et al. (2006) J. Med. Chem., 49: 5728-5749; Bieth (1995) Meth. Enzymol., 248: 59-84). Assay wells contained a mixture of inhibitor and AMC or AFC substrate in buffer. Aliquots of caspase were added to each well to initiate the assay. Hydrolysis of the AMC or AFC substrate was monitored fluorometrically for 45 min. To determine the inhibition parameters, time points for which the control ([I]=0) was linear were used. For each inhibitor, a kobs was calculated for at least four different concentrations of inhibitors via a nonlinear regression of the data according to the equation P=(vi/kobs)[1−exp(−kobst) (where product formation=P, […], and the first-order rate constant=kobs). If kobs varied linearly with [I], then the association constant kass was determined by linear regression analysis using kobs=(kass[I])/(1+[S]/Km) where [S] is the concentration of the substrate. […] Inhibition was measured in duplicate and the average of is reported. […]

caspase-9 = target: T2, caspase-9 (Homo sapiens, UniProt P55211); test: Irreversible inhibitor kinetic assay (progress curve), caspase-9, substrate Ac-LEHD-AFC; assay type: biochemical; conditions: casp-9; duplicate, SD included
T2 construct: gift: Guy Salvesen's laboratory, Burnham Institute (La Jolla, Calif.)
T2 sequence (P55211 1-315 limits assumed): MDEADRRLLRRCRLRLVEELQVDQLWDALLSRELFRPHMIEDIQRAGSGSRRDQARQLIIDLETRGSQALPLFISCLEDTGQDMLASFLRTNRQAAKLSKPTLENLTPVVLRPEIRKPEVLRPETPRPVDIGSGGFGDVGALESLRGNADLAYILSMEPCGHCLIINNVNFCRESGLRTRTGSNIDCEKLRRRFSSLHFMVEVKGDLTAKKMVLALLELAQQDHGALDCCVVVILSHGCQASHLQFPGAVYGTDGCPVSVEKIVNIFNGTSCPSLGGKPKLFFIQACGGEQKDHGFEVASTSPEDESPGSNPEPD
T2 sequence (P55211 331-416 limits assumed): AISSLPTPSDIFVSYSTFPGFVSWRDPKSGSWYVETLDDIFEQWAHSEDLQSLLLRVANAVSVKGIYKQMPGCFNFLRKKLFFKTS
Excerpt: as §1, §2

| SMILES | Hdh111Q mediated toxicity (Hdh111Q cells) | Caspase activation in Hdh111Q cells (Hdh111Q cells) | kinact/Ki (caspase-6) | kinact/Ki (caspase-9) | Rank of potency in blocking caspase activation in Hdh111Q cells (Hdh111Q cells; among MJL-001i, MJL-002i, MJL-003i) |
| --- | --- | --- | --- | --- | --- |
| C[C@@](NS(=O)(=O)Cc1ccccc1)(c1cn([C@@H](CC(=O)O)C(=O)COc2c(F)c(F)cc(F)c2F)nn1)C1CCCCC1 [MJL-001i] | suppressed | block | 23,100 ± 1,900 s^−1/M^−1 | 18,250 ± 4,050 s^−1/M^−1 |  |
| C[C@@](NC(=O)CCCC(=O)O)(c1cn([C@@H](CC(=O)O)C(=O)COc2c(F)c(F)cc(F)c2F)nn1)C1CCCCC1 [MJL-002i] | suppressed | block | 32,950 ± 1,650 s^−1/M^−1 | 7,550 ± 1,650 s^−1/M^−1 |  |
| C[C@@](NC(=O)Cc1ccccc1)(c1cn([C@@H](CC(=O)O)C(=O)COc2c(F)c(F)cc(F)c2F)nn1)C1CCCCC1 [MJL-003i] | suppressed | block | 45,750 ± 450 s^−1/M^−1 | 28,100 ± 2,500 s^−1/M^−1 | most potent |
